The text below walks through data of patent publication US5326766A, “4-(2-(4-(2-pyridinyloxy)phenyl)ethoxy)quinazoline and analogues thereof” (priority 1992, dated 1994).

Data set [1] relates to Pyricularia oryzae (rice blast). The data set can be described thus: whole plant or invertebrate. The class given is in vivo. To be noted: foliar spray, 400 ppm (+++: 100 ppm); for PYRIOR disease control: host rice.
Data set [2] relates to aster leafhopper (Macrosteles fascifrons). The data set can be described thus: whole plant or invertebrate. The class given is in vivo. The conditions noted are these: for ALH percent mortality: 24 hours, 1440 min. Summed up:
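Compounds were formulated in water with Tween 20 and acetone/EtOH and tested at 400 and 50 ppm. Percent mortality was scored after 24 h at room temperature.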

Data set [3] concerns beet armyworm (Spodoptera exiqua). The data set can be described thus: Activity against beet armyworm. The format is in vivo. The conditions noted are these: 6 days. Summed up:
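Compounds formulated in acetone/EtOH with aqueous 0.05% Tween 20, tested at 400 and 50 ppm. Half-strength lepidopteran agar diet cups carrying 35-40 beet armyworm eggs sprayed through a flat-fan nozzle, dried, sealed and held 6 days at room temperature. Rated by live and dead larval counts and live larval size.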

In data set [4] the test system is tobacco budworm (Heliothis virescens). The data set can be described thus: Activity against tobacco budworm. The format is in vivo. To be noted: 6 days. The procedure, abridged: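 Compounds formulated in acetone/EtOH with aqueous Tween 20 and sprayed at 400 and 50 ppm onto half-strength lepidopteran diet cups seeded 1 h earlier with 18–20 eggs. After 6 days at room temperature, activity rated from live and dead larval counts and live larva size.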

In data set [5] the test system is cotton aphid (Aphis gossypii). To be noted: 400 ppm, squash plants, three days after treatment, 4320 min.
The test system of data set [6] is two spotted spider mite (Tetranychus urticae). The conditions noted are these: 400 ppm, squash plants, three days after treatment, 4320 min.
Data set [7] concerns Plasmopara viticola (downy mildew). The data set can be described thus: Foliar spray fungicide test, Plasmopara viticola (downy mildew) on grape. The conditions noted are these: for pest or weed control at 400 µg/mL: Plasmopara viticola, foliar, read-out: PLASVI disease control.
Description: (§1) The test compounds were formulated for application by dissolving 50 mg of the compound into 1.25 ml of solvent. The solvent was prepared by mixing 50 ml of "Tween 20" (polyoxyethylene (20) sorbitan monolaurate emulsifier) with 475 ml of acetone and 475 ml of ethanol. The solvent/compound solution was diluted to 125 ml with deionized water. The resulting formulation contains 400 ppm test chemical. Lower concentrations were obtained by serial dilution with the solvent-surfactant mixture.
(§2) The formulated test compounds were applied by foliar spray.
(§3) The formulated technical compounds were sprayed on all foliar surfaces of the host plants to past run-off. Single pots of each host plant were placed on raised, revolving pedestals in a fume hood. Test solutions were sprayed on all foliar surfaces. All treatments were allowed to dry and the plants were inoculated with the appropriate pathogens within 24 hours.
(§4) The effectiveness of test compounds in controlling disease was rated using the following scale.
Data set [8] has as its system Leptosphaeria nodorum (glume blotch). The data set can be described thus: Foliar spray fungicide test, Leptosphaeria nodorum (glume blotch) on wheat. The conditions noted are these: for LETPNO disease control: host wheat, 400 ppm (+++: 100 ppm).
Description: as §1, §2, §3, §4
For data set [9], the system named is Puccinia recondita tritici (leaf rust). The data set can be described thus: Foliar spray fungicide test, Puccinia recondita tritici (leaf rust) on wheat. The conditions noted are these: for PUCCRT disease control: host wheat, 400 ppm (+++: 100 ppm).
Description: as §1
(§5) The formulated test compounds were applied by foliar spray. The following plant pathogens and their corresponding plants were employed.
Puccinia recondita PUCCRT wheat
as §3, §4
For data set [10], the system named is Erysiphe graminis tritici (powdery mildew). The data set can be described thus: Foliar spray fungicide test, Erysiphe graminis tritici (powdery mildew) on wheat. To be noted: for ERYSGT disease control: host wheat, 400 ppm (+++: 100 ppm).
Description: as §1, §5, §3, §4
Data set [11] deals with Southern corn rootworm (Diabrotica undecimpuctata howardi Barber). The data set can be described thus: whole plant or invertebrate. The format is in vivo. The conditions noted are these: 400 ppm, soil concentration of 24 ppm, 3-4 days, read-out: SCRW mortality.
The test system of data set [12] is German cockroach (Blattella germanicus). The data set can be described thus: whole plant or invertebrate. The conditions noted are these: 240 h, ten days, read-out: GECR activity (rated on live and dead insects). The class given is in vivo.
Data set [13] has as its system Southern corn rootworm (Diabrotica undecimpuctata howardi Barber). The data set can be described thus: whole plant or invertebrate. The format is in vivo. To be noted: 3-4 days, read-out: SCRW mortality.
Data set [14] deals with cotton aphid (Aphis gossypii). The data set can be described thus: whole plant or invertebrate. To be noted: 72 h.
Data set [15] has as its system two spotted spider mite (Tetranychus urticae). The data set can be described thus: whole plant or invertebrate. To be noted: 72 h.

SMILES strings stand for the structures.

`Fc1cccc2c(OCCc3ccc(Oc4nc(Cl)c(Cl)cc4Cl)cc3)ncnc12` [Compound 42]: in data set [1], the PYRIOR disease control result is “- (0-19% control at 400 ppm)”. Moreover, in data set [2] (400 ppm), the ALH percent mortality is recorded as 60%. For the same compound, the “BAW activity (rated on live and dead larvae and size of live larvae)” value in [3] (400 ppm) came to 0. In data set [4] (400 ppm), the “TBW activity (rated on live and dead larvae and size of live larvae)” value is 0. Also, the “CA activity (percent based on aphids present in plants sprayed with solvent alone)” value in data set [5] is listed as 0%. Besides, in data set [6], the “TSSM activity (percent based on mites present in plants sprayed with solvent alone)” value is 0%. Also, the pest or weed control at 400 µg/mL in [7] lay in the range of 20 to 89%. Further, in data set [8], the LETPNO disease control result is listed as “- (0-19% control at 400 ppm)”. Further, the PUCCRT disease control result in [9] was “+ (20-89% control at 400 ppm)”. In [10], the ERYSGT disease control entry is on record as “- (0-19% control at 400 ppm)”.
On to `Fc1cccc2c(OCCc3ccc(Oc4nc(Cl)c(Cl)cc4Cl)cc3)ncnc12` [Compound 44], for which the PYRIOR disease control result in [1] is listed as “+ (20-89% control at 400 ppm)”. In addition, in data set [2] (400 ppm), the ALH percent mortality is 0%. The “BAW activity (rated on live and dead larvae and size of live larvae)” value in data set [3] (400 ppm) was 100. Also, in data set [11], the mortality at 24 ppm came out at 100%. Further, the “TBW activity (rated on live and dead larvae and size of live larvae)” value in data set [4] (400 ppm) was 100. Besides, the mortality at 400 ppm in [12] stood at 20%. For the same compound, in data set [5], the “CA activity (percent based on aphids present in plants sprayed with solvent alone)” value is on record as 100%. Further, the “TSSM activity (percent based on mites present in plants sprayed with solvent alone)” value in [6] turned out to be 50%. In addition, the PLASVI disease control entry in data set [7] (host grape, foliar spray, 400 ppm (+++: 100 ppm)) is given as “+ (20-89% control at 400 ppm)”. Further, the LETPNO disease control entry in data set [8] is reported as “+ (20-89% control at 400 ppm)”. Further, the PUCCRT disease control result in [9] is “+++ (90-100% control at 100 ppm)”. Besides, in [10], the ERYSGT disease control entry is “+++ (90-100% control at 100 ppm)”.
`c1ccc2c(OCCc3ccc(Oc4cnccn4)cc3)ncnc2c1` [Compound 51]: the pest or weed control at 400 µg/mL in [1] (Pyricularia oryzae, foliar, read-out: PYRIOR disease control, host rice) lay in the range of 90 to 100%; in [7] it was 90 to 100%; in data set [8] (Parastagonospora nodorum, in Triticum aestivum, foliar, read-out: LETPNO disease control, host wheat, 400 ppm (+++: 100 ppm)), 90 to 100%; in data set [9] (Puccinia recondita, in Triticum aestivum, foliar, read-out: PUCCRT disease control, host wheat, 400 ppm (+++: 100 ppm)), 0 to 19%; in data set [10] (Blumeria graminis, in Triticum aestivum, foliar, read-out: ERYSGT disease control, host wheat, 400 ppm (+++: 100 ppm)) it was 90 to 100%. In addition, the mortality at 50 ppm in [2] (Macrosteles fascifrons, 24 h, 50 ppm, read-out: ALH percent mortality) amounted to 100%; in data set [12] (50 ppm) it was 0%; in data set [13] it was 0%; in data set [14] (read-out: CA activity (percent based on aphids present in plants sprayed with solvent alone), 50 ppm, squash plants, three days after treatment), 0%; in [15] (read-out: TSSM activity (percent based on mites present in plants sprayed with solvent alone), 50 ppm, squash plants, three days after treatment), 0%. The mortality at 400 ppm was 100% in [2] (Macrosteles fascifrons, 24 h, 400 ppm, read-out: ALH percent mortality); 0% in data set [12]; 0% in data set [14] (read-out: CA activity (percent based on aphids present in plants sprayed with solvent alone), 400 ppm, squash plants, three days after treatment); 0% in [15] (read-out: TSSM activity (percent based on mites present in plants sprayed with solvent alone), 400 ppm, squash plants, three days after treatment). For the same compound, the pest or weed control at 50 ppm worked out at 100% in data set [3] (Spodoptera, 144 h, 50 ppm, read-out: BAW activity (rated on live and dead larvae and size of live larvae)); 100% in [4] (Heliothis virescens, 144 h, 50 ppm, read-out: TBW activity (rated on live and dead larvae and size of live larvae)). In addition, the pest or weed control at 400 ppm in data set [3] (Spodoptera, 144 h, 400 ppm, read-out: BAW activity (rated on live and dead larvae and size of live larvae)) stood at 100%; in data set [4] (Heliothis virescens, 144 h, 400 ppm, read-out: TBW activity (rated on live and dead larvae and size of live larvae)), 100%. Also, the mortality at 24 ppm in data set [11] came out at 100%.
